Active and inactive are the calls of the source.
Columns and labels:
[1] = target: Hepatocyte nuclear factor 4-alpha (Homo sapiens, UniProt P41235); type: functional, cell-based;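 note: biochemical luminescence-based dose-response counterscreen measuring inhibition of HNF4 dimerization, run alongside a screen for blockers of ABHD5–perilipin-5 interaction; split luciferase complementation of HNF4 fusion proteins in cell lysate measuring dimerization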
[2] = NIH3T3 cell viability loss – ATP luminescence, mouse fibroblasts, counter-screen, dose response (AID 2010); type: functional, cell-based;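 note: cells exposed to compound for about 90 hours before reading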
[3] = viability of HCT116 lacking mutant beta-catenin – cell-based, human colon tumor, dose response (AID 1045); type: functional;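 note: HCT116 colon tumor cells with beta catenin knocked out; cells exposed to compound for 60 hours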
HT-1080 = test: HT1080 cell viability loss – fluorescence readout (AID 620); type: functional, cell-based; conditions: Homo sapiens
[4] = Trypanosoma cruzi growth suppression in host cells – NIH3T3 host cells, beta-gal luminescence, confirmation (AID 2044); type: functional, cell-based;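 note: intracellular parasites grown in NIH/3T3 mouse fibroblasts as host cells; luminescent beta-galactosidase reporter signal from transgenic T. cruzi replicating inside host cells; inhibitors lower the luminescence signal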
[5] = target: FAD-linked sulfhydryl oxidase ALR (Homo sapiens, UniProt P55789); test: ALR-catalysed DTT oxidation blockers – biochemical, H2O2 detection, luminescence, cherry-pick, dose response (AID 493248)
Chain of FAD-linked sulfhydryl oxidase ALR (P55789 whole entry): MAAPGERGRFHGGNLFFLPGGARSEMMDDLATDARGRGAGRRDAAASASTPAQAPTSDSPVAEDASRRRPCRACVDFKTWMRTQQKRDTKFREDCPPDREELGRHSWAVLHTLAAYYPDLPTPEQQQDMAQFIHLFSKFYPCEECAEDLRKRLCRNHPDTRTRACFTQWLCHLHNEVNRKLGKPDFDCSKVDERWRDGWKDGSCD

[6] = target: Glucose-6-phosphate 1-dehydrogenase (Homo sapiens, UniProt P11413); test: inhibition of Homo sapiens G6PD, dose series – biochemical, fluorescence, selectivity assay for P. falciparum G6PD inhibitor project, dose response (AID 504792); type: functional
Chain of Glucose-6-phosphate 1-dehydrogenase (P11413 whole entry): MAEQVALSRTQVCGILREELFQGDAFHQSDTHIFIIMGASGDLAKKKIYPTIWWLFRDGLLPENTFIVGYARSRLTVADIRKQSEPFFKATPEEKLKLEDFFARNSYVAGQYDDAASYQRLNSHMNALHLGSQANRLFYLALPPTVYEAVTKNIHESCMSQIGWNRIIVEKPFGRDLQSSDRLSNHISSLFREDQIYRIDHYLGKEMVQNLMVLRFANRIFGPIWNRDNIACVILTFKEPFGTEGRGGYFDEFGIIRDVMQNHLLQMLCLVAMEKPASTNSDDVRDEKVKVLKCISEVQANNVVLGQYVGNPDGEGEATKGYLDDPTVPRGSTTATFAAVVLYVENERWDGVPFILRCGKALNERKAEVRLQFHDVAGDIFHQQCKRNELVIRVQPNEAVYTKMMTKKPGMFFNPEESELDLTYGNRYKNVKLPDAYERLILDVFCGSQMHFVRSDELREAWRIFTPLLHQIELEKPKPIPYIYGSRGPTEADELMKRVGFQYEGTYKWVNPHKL

[7] = viability of PTEN-deleted HCT116 cells – cell-based, HCT116 PTEN knockout, dose response (AID 1047); type: functional;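 note: HCT116 colon tumor cells with PTEN knocked out; cells exposed to compound for 60 hours before readout; potency for loss of cell viability measured by luminescence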
[8] = viability loss of HPDE-C7K cells – cell-based, fluorescence, HTS, primary screen (AID 431); type: functional; conditions: Homo sapiens
[9] = target: Luciferin 4-monooxygenase (Photinus pyralis, UniProt P08659); test: Counter Screen for Luciferase-based Assay Positives. [Related pubchem assays: 620, 618, 411 ]
Chain of Luciferin 4-monooxygenase (P08659 whole entry): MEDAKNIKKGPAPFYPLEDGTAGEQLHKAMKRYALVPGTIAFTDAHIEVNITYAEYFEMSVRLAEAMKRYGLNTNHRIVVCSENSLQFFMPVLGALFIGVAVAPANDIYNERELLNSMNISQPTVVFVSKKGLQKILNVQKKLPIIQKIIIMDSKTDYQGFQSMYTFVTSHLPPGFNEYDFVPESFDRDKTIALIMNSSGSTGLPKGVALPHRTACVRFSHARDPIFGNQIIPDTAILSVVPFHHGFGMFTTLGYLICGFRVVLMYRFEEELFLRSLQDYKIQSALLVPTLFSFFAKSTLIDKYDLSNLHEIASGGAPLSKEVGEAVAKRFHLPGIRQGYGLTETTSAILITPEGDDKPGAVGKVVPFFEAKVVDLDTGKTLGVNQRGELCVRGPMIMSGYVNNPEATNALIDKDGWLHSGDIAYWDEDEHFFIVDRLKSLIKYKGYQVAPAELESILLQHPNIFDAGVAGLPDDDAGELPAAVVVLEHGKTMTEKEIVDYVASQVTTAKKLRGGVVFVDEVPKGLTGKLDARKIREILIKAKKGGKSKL

[10] = HEK-293T cell viability reduction – luminescence, B-cell screen hits, cytotoxicity control for BCR NF-kB inhibitor project, dose response (AID 489021); type: functional, cell-based;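 note: HEK-293T cells carrying an NF-kB luciferase reporter; cells exposed to compound for about 14 hours before viability readout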
[11] = HPDE-C7 pancreatic duct cell viability loss – fluorescence, HTS (AID 430); type: functional, cell-based; conditions: Homo sapiens
[12] = THP-1 cell cytotoxicity, cytotoxicity control, set 4 (AID 504911); type: functional; conditions: Mycobacterium tuberculosis
[13] = target: T1, Apoptotic protease-activating factor 1 (Homo sapiens, UniProt O14727); test: SAR analysis of small molecule Activators of Apaf-1 in a Fluorescent assay.; type: functional; conditions: read-out: EC50_Mean;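 note: caspase-3 cleavage of fluorogenic Rh110 DEVD substrate downstream of apoptosome activation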
T1 sequence (O14727 whole entry): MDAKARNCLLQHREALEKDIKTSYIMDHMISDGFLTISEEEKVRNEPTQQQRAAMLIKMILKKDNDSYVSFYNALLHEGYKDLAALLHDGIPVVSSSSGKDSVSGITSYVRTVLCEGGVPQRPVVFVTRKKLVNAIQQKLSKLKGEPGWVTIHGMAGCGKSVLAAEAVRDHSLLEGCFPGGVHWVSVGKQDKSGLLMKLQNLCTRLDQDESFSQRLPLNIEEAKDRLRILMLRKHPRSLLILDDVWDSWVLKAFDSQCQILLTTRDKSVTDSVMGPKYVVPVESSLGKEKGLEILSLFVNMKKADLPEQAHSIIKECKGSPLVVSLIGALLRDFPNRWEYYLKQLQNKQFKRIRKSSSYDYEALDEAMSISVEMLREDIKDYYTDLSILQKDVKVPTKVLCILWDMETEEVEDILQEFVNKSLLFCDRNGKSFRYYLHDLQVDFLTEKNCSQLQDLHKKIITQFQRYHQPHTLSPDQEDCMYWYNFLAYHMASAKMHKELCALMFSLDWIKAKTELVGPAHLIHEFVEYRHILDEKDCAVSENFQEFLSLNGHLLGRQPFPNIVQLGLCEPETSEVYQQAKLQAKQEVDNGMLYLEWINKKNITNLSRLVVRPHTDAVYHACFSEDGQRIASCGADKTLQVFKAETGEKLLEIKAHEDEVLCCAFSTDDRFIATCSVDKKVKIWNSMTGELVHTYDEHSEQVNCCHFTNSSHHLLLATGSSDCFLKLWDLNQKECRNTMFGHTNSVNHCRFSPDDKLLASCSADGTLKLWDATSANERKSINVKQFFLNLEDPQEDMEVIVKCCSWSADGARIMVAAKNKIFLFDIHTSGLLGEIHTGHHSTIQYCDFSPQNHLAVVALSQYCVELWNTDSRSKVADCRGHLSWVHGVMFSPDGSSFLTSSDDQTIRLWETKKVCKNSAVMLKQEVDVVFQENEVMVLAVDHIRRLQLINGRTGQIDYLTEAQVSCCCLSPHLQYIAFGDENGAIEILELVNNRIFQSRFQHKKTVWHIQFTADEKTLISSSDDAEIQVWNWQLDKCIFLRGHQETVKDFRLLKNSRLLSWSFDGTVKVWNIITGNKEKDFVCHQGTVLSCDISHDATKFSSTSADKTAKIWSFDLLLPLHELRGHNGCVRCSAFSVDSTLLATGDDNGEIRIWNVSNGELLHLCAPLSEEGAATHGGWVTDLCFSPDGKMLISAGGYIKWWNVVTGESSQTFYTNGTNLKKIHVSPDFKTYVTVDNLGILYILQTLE

[14] = target: T2, Neuropeptides B/W receptor type 1 (Homo sapiens, UniProt P48145); test: human NPBW1 receptor blockade, IC50 – cell-based, fluorescence, dose response, set 5, late-stage follow-up (AID 588566); type: functional
T2 sequence (P48145 whole entry): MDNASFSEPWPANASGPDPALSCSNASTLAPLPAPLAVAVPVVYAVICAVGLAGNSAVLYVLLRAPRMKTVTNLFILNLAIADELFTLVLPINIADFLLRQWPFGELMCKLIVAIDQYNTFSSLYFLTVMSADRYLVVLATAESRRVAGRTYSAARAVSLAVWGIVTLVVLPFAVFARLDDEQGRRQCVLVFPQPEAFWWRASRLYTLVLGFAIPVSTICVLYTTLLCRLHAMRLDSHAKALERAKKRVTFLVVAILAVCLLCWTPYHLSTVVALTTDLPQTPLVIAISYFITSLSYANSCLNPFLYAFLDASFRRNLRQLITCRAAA

[15] = target: Melanin-concentrating hormone receptor 1 (Homo sapiens, UniProt Q99705); test: Late-stage fluorescence-based counterscreen for antagonists of the G-protein coupled receptor 7 (GPR7): cell-based dose response assay to identify antagonists of the melanin-concentrating hormone receptor 1 (MCHR1) Set 5.; type: functional
Chain of Melanin-concentrating hormone receptor 1 (Q99705 whole entry): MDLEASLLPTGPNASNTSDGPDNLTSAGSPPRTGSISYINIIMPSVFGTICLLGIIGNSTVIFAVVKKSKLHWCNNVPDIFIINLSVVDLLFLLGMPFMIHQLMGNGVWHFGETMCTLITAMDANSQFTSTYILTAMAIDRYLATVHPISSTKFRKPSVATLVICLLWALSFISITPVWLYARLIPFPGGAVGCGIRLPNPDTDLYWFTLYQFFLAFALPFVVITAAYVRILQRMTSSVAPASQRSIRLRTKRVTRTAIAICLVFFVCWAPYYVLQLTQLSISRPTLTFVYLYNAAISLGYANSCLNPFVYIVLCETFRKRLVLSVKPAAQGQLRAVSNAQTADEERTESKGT

[16] = target: cAMP-dependent protein kinase catalytic subunit alpha (Homo sapiens, UniProt P17612); type: functional
[17] = target: Homeodomain-interacting protein kinase 2 (Homo sapiens, UniProt Q9H2X6); type: functional;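 note: measured within a kinome-wide kinase profiling panel, HIPK2 being one panel member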
Chain of Homeodomain-interacting protein kinase 2 (Q9H2X6 whole entry): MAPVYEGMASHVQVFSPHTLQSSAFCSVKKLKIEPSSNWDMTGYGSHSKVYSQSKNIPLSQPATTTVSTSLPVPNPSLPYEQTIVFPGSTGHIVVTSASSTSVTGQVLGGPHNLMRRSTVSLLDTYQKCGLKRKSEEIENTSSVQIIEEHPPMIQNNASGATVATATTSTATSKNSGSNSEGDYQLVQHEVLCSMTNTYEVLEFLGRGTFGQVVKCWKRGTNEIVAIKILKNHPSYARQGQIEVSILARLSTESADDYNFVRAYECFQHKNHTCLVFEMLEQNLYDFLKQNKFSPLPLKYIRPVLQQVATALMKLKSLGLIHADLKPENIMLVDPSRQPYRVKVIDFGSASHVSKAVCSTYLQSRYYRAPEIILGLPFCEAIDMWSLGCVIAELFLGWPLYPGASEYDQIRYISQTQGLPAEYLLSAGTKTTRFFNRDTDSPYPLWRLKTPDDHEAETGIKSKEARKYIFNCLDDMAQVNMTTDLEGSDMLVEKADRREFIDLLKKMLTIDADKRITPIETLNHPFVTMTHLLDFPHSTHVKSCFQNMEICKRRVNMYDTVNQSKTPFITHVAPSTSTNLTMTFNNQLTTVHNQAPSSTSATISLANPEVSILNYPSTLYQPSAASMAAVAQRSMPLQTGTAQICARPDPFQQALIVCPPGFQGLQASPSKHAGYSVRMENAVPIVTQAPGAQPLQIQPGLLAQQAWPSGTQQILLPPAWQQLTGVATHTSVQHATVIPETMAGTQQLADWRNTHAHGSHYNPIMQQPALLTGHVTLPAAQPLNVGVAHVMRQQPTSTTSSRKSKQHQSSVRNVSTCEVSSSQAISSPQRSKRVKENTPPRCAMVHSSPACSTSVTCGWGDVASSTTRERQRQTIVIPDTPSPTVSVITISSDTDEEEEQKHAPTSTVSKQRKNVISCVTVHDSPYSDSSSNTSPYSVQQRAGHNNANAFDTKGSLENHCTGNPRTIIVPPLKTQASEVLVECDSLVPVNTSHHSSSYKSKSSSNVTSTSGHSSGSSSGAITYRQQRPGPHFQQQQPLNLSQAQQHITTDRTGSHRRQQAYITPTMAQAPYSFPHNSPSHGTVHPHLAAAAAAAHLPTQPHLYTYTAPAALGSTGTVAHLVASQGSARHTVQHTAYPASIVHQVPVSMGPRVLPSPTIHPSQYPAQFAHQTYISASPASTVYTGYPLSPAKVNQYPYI

[18] = target: Serine/threonine-protein kinase pim-1 (Homo sapiens, UniProt P11309); type: functional
[19] = target: Glycogen synthase kinase-3 beta (Homo sapiens, UniProt P49841); type: functional;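 note: value comes from a broad kinome profiling panel, with GSK3B as the panel member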
Chain of Glycogen synthase kinase-3 beta (P49841 whole entry): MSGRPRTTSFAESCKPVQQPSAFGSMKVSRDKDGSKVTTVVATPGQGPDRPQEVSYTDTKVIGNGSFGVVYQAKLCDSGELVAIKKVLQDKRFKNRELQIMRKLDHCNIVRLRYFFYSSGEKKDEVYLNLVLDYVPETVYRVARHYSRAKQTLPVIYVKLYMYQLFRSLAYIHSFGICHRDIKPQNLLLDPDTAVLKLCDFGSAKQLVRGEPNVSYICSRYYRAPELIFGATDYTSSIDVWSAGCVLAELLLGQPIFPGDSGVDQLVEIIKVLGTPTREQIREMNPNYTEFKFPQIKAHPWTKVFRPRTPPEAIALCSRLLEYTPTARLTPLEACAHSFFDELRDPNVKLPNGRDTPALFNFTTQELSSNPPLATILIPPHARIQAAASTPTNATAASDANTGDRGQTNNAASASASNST

[20] = target: Cell division cycle 7-related protein kinase (Homo sapiens, UniProt O00311); type: functional;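 note: value obtained from a kinome-wide kinase panel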
[21] = target: Interleukin-1 receptor-associated kinase 4 (Homo sapiens, UniProt Q9NWZ3); type: functional
[22] = target: Mitogen-activated protein kinase kinase kinase kinase 4 (Homo sapiens, UniProt O95819); type: functional
[23] = target: Mitogen-activated protein kinase 13 (Homo sapiens, UniProt O15264); type: functional
Chain of Mitogen-activated protein kinase 13 (O15264 whole entry): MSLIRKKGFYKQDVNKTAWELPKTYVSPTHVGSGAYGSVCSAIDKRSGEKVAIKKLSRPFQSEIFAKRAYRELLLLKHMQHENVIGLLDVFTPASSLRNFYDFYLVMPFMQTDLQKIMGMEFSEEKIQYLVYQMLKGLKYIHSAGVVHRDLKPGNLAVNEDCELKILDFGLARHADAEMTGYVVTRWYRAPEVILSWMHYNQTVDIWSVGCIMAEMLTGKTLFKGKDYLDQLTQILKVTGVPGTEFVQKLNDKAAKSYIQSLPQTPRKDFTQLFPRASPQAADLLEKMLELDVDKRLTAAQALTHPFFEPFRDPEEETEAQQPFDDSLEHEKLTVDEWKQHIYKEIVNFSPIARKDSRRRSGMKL

[24] = target: Proto-oncogene tyrosine-protein kinase Src (Homo sapiens, UniProt P12931); type: functional;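 note: SRC entry within a kinome-wide kinase profiling panel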
Chain of Proto-oncogene tyrosine-protein kinase Src (P12931 2-536 limits assumed): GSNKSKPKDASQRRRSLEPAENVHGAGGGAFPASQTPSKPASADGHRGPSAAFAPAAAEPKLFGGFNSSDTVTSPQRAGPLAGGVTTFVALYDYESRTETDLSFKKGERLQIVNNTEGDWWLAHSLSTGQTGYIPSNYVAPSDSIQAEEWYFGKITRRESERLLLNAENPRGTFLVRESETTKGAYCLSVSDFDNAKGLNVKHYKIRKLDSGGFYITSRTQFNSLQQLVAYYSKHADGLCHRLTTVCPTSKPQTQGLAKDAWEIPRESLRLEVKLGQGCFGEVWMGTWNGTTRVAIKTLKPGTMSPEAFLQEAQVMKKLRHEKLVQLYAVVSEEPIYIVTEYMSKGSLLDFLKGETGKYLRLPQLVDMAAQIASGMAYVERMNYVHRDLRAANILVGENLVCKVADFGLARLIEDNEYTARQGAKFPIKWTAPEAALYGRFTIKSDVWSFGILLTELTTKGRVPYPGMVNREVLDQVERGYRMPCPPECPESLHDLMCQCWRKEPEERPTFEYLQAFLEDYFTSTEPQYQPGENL

[25] = target: Tyrosine-protein kinase SYK (Homo sapiens, UniProt P43405); type: functional
[26] = blockers of CAL PDZ–TMR peptide complex – biochemical, fluorescence polarization, untagged CAL PDZ, cherry-pick, set 2, dose response (AID 602254); type: functional
Orexin receptor type 2 [27] = target: T3, Orexin receptor type 2 (Homo sapiens, UniProt O43614); test: Counterscreen assay for antagonists of the orexin 1 receptor (OX1R; HCRTR1): Homogeneous Time Resolved Fluorescence (HTRF)-based cell-based dose response assay for antagonists of the orexin 2 receptor (OX2R; HCRTR2), run by assay provider.; type: functional
T3 sequence (O43614 whole entry): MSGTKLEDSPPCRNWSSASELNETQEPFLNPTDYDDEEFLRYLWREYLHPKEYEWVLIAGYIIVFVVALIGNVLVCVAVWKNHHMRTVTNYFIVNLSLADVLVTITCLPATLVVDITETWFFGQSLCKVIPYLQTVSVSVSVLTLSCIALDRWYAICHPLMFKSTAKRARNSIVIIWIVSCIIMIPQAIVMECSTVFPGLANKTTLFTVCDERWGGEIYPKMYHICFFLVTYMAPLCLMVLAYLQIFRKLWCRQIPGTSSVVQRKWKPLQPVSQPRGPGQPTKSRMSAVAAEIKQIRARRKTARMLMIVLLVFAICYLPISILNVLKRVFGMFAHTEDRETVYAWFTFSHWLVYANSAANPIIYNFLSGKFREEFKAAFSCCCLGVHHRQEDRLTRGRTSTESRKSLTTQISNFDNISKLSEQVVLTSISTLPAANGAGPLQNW

Orexin receptor type 2 [28] = target: T3, Orexin receptor type 2; test: Counterscreen assay for antagonists of the orexin 1 receptor (OX1R; HCRTR1): Fluorescence-based cell-based dose response assay for antagonists of the orexin 2 receptor (OX2R; HCRTR2), run by assay provider.; type: functional
[29] = target: T4, Orexin/Hypocretin receptor type 1 (Homo sapiens, UniProt O43613); test: Homogeneous Time Resolved Fluorescence (HTRF)-based cell-based high throughput dose response assay for antagonists of the orexin 1 receptor (OX1R; HCRTR1). [Related pubchem assays (depositor defined):AID434989, AID435008, AID463079, AID485270, AID492963, AID492964, AID492965, AID493232, AID504717, AID504718]; type: functional
T4 sequence (O43613 whole entry): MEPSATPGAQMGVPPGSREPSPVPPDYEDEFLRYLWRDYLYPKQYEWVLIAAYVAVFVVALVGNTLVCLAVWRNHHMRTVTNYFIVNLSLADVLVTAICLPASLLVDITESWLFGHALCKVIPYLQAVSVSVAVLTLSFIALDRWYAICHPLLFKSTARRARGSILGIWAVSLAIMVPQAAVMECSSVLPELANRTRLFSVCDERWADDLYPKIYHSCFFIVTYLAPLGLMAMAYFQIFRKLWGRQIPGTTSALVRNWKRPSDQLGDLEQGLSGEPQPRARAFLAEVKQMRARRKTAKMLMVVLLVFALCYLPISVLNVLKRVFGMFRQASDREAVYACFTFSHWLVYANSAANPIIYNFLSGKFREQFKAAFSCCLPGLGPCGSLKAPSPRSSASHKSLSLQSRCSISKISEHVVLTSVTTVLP

[30] = (§1) Counterscreen for antagonists of the orexin 1 receptor (OX1R; HCRTR1): Fluorescence-based cell-based high throughput dose response assay to identify antagonists of the parental CHO cell line. [Related pubchem assays (depositor defined):AID434989, AID435008, AID463079, AID485270, AID492963, AID492964, AID492965, AID493232, AID504699, AID504701]; type: functional
CHO-K1 = test: as §1, with “Homogeneous time resolved fluorescence (HTRF)-based” for “Fluorescence-based”, “cell-based” for “cell-based high throughput”, “CHO-K1” for “CHO”; type: functional; conditions: Cricetulus griseus;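 note: potency for inhibition of ATP-stimulated IP1 production as antagonists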
[31] = target: T4, Orexin/Hypocretin receptor type 1; test: Fluorescence-based cell-based high throughput dose response assay for antagonists of the orexin 1 receptor (OX1R; HCRTR1). [Related pubchem assays (depositor defined):AID434989, AID435008, AID463079, AID485270, AID492963, AID492964, AID492965, AID493232, AID504717, AID504718]; type: functional
[32] = target: Mitochondrial peptide methionine sulfoxide reductase (Bos taurus, UniProt P54149); type: functional;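 note: absorbance read-out, biochemical high-throughput dose-response screen for MsrA inhibitors, confirmatory; recombinant bovine MsrA coupled to E. coli TrxB with NADPH and selenocystamine; potency is for inhibitors of MsrA activity on DMSO substrate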
Chain of Mitochondrial peptide methionine sulfoxide reductase (P54149 whole entry): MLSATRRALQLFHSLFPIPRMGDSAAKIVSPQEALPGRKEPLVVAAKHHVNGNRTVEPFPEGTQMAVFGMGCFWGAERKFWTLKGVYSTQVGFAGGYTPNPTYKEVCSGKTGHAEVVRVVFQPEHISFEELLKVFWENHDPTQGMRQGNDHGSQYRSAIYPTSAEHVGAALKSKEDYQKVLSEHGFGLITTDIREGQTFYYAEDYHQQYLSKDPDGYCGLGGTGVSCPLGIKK

Chain of Hepatocyte nuclear factor 4-alpha (P41235 whole entry, the tested form may be a part): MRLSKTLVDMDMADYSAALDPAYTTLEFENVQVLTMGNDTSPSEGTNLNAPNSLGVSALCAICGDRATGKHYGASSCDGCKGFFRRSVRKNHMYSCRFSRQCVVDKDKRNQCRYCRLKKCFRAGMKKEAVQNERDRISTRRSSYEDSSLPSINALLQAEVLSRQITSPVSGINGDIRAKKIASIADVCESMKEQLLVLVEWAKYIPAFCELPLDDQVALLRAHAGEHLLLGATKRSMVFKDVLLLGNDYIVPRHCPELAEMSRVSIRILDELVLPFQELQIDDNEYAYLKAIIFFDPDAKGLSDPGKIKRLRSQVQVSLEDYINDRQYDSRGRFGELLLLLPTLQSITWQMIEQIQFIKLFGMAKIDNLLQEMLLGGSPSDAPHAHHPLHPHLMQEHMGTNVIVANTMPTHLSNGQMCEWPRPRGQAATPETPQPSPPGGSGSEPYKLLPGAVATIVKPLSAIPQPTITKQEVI

With `CC1=CC(C)(C)Nc2ccc(OC(=O)CN3C(=O)CCC3=O)cc21` the IC50 [1] was 9.33 µM (active), the EC50 [2] was 8.86 µM (active) and the EC50 [3] was 5.71 µM (active). The EC50 (HT-1080) was > 50 µM (not active), the EC50 [4] was 2.93 µM (active) and the AC50 [5] was 2.79 µM (active). The IC50 [6] was 54 µM (inactive), the EC50 [7] was 8.84 µM (active) and the EC50 [8] was 8.75 µM (active). The EC50 [9] was 0.79 µM (active), the IC50 [10] was 48.4 µM (inactive) and the EC50 [11] was 7.45 µM (active).
For `NC(=O)c1cnccn1` [PYRAZINAMIDE], the CC50 [12] was > 100 µM (active).
In the case of `CCOc1ccccc1NC(=O)CCS(=O)(=O)c1ccc2c(c1)CCN2C(C)=O`, the EC50 [13] is reported as > 100 µM (inactive).
With `COc1ccc(Oc2c(Cl)cnn(Cc3cccc4ccccc34)c2=O)c(F)c1F` the IC50 [14] was 0.292 µM (active) and the IC50 [15] was 2.05 µM (active).
With `CCOC(=O)C(C#N)c1c(Cl)c(Br)nn(Cc2cccc3ccccc23)c1=O` (stereo unspecified) the IC50 [14] was 1.45 µM (active) and the IC50 [15] was 3.33 µM (active).
With `Cc1n[nH]c2ccc(-c3cncc(OCCN(C)S(C)(=O)=O)c3)cc12` the Ki [16] was 0.631 µM (active), the Ki [17] was > 3.16 µM (inactive) and the Ki [18] was 5.01 µM (active). The Ki [19] was 0.398 µM (active), the Ki [20] was 0.0126 µM (active) and the Ki [21] was 3.16 µM (active). For the same compound, the Ki [22] was 0.126 µM (active).
With `Cn1cc(C=C2C(=O)Nc3cccnc32)c2ccccc21` [GW441756X] the Ki [23] was > 7.94 µM (inactive), the Ki [24] was 0.501 µM (active) and the Ki [25] was 0.501 µM (active).
In the case of `O=C(CNC(=O)c1ccc2c(c1)OCCO2)N/N=C/c1ccc(Cl)cc1`, the AC50 [26] is reported as 101 µM (active).
In the case of `Cc1c(/C=C/C(=O)c2cccs2)cnn1C`, the IC50 (Orexin receptor type 2 [27]) is reported as > 50 µM (inactive), the IC50 (Orexin receptor type 2 [28]) is reported as > 88.8 µM (inactive) and the IC50 [29] is reported as 3.97 µM (active). The IC50 [30] was > 49.8 µM (inactive), the IC50 (CHO-K1) was 35 µM (inactive) and the IC50 [31] was > 49.8 µM (inactive).
With `COC(=O)CC/C(C)=N\Nc1ccc([N+](=O)[O-])cc1[N+](=O)[O-]` the IC50 [32] was 155 µM (inactive).

From ChEMBL document CHEMBL1201862, “PubChem BioAssay data set” (2004)
